Results: ChEMBL document CHEMBL3774317, “Design and synthesis of novel tamoxifen analogues that avoid CYP2D6 metabolism” (Eur J Med Chem, 2016)
pIC50: −log10 of the molar value.

Tests used:
[1] = Cytotoxicity against human IGROV1 cells assessed as growth inhibition after 48 hrs by SRB assay; assay type: functional; conditions: IGROV-1, 48 h; for CC50: read-out: LC50 (the source's name)
[2] = target: T1, Estrogen receptor (Homo sapiens, UniProt P03372)
T1 sequence (P03372 whole entry): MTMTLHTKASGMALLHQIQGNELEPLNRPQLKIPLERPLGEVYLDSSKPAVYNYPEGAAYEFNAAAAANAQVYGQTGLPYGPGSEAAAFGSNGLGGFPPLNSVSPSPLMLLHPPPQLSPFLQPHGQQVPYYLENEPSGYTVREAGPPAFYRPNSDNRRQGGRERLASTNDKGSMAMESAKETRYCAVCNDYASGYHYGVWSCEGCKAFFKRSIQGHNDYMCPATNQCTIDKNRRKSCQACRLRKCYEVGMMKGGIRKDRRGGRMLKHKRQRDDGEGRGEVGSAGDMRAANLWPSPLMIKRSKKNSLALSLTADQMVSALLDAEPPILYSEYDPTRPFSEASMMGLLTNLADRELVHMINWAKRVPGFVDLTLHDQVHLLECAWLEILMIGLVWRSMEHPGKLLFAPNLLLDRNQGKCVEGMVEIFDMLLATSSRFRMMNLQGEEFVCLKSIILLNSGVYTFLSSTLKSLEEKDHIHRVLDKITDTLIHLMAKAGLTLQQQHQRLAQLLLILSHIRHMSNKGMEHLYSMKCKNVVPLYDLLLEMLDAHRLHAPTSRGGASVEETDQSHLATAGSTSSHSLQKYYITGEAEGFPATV
Description: Displacement of [3H]-E2 from human ER-alpha incubated for 16 to 20 hrs by liquid scintillation counting analysis

[3] = test system: MDA-MB-468; assay: Cytotoxicity against human MDA-MB-468 cells assessed as growth inhibition after 48 hrs by SRB assay; assay type: functional; conditions: MDA-MB-468, 48 h; for CC50: read-out: LC50 (the source's name)
[4] = test system: SK-MEL-2; assay: Cytotoxicity against human SK-MEL-2 cells assessed as growth inhibition after 48 hrs by SRB assay; assay type: functional; conditions: SK-MEL-2, 48 h; for CC50: read-out: LC50 (the source's name)
[5] = test system: SK-MEL-28; assay: Cytotoxicity against human SK-MEL-28 cells assessed as growth inhibition after 48 hrs by SRB assay; assay type: functional; conditions: SK-MEL-28, 48 h
[6] = Cytotoxicity against human DU145 cells assessed as growth inhibition after 48 hrs by SRB assay; assay type: functional; conditions: DU-145, 48 h
[7] = Cytotoxicity against human SNB19 cells assessed as growth inhibition after 48 hrs by SRB assay; assay type: functional; conditions: SNB-19, 48 h; for CC50: read-out: LC50 (the source's name)
[8] = Cytotoxicity against human HOP62 cells assessed as growth inhibition after 48 hrs by SRB assay; assay type: functional; conditions: HOP-62, 48 h
[9] = Cytotoxicity against human RXF393 cells assessed as growth inhibition after 48 hrs by SRB assay; assay type: functional; conditions: RXF 393, 48 h; for CC50: read-out: LC50 (the source's name)
[10] = Cytotoxicity against human Caki1 cells assessed as growth inhibition after 48 hrs by SRB assay; assay type: functional; conditions: CAKI-1, 48 h
[11] = test system: NCI-H522; assay: Cytotoxicity against human NCI-H522 cells assessed as growth inhibition after 48 hrs by SRB assay; assay type: functional; conditions: NCI-H522, 48 h; for CC50: read-out: LC50 (the source's name)
[12] = test system: K562; assay: Cytotoxicity against human K562 cells assessed as growth inhibition after 48 hrs by SRB assay; assay type: functional; conditions: K562, 48 h
[13] = Cytotoxicity against human LOXIMVI cells assessed as growth inhibition after 48 hrs by SRB assay; assay type: functional; conditions: LOX IMVI
[14] = Cytotoxicity against human SNB75 cells assessed as growth inhibition after 48 hrs by SRB assay; assay type: functional; conditions: SNB-75, 48 h
[15] = test system: EKVX; assay: Cytotoxicity against human EKVX cells assessed as growth inhibition after 48 hrs by SRB assay; assay type: functional
[16] = test system: MCF7; assay: Antiproliferative activity against human MCF7 cells after 72 hrs by MTT assay; conditions: mcf7
[17] = Cytotoxicity against human SF539 cells assessed as growth inhibition after 48 hrs by SRB assay; assay type: functional; conditions: SF-539, 48 h
[18] = Cytotoxicity against human HCT116 cells assessed as growth inhibition after 48 hrs by SRB assay; assay type: functional; conditions: HCT-116, 48 h
[19] = test system: HT-29; assay: Cytotoxicity against human HT-29 cells assessed as growth inhibition after 48 hrs by SRB assay; assay type: functional; conditions: HT-29, 48 h; for CC50: read-out: LC50 (the source's name)
[20] = test system: A498; assay: Cytotoxicity against human A498 cells assessed as growth inhibition after 48 hrs by SRB assay; assay type: functional; conditions: A498, 48 h
[21] = test system: SN12C; assay: Cytotoxicity against human SN12C cells assessed as growth inhibition after 48 hrs by SRB assay; assay type: functional
[22] = test system: Malme-3M; assay: Cytotoxicity against human MALME-3M cells assessed as growth inhibition after 48 hrs by SRB assay; assay type: functional; conditions: for CC50: read-out: LC50 (the source's name)
[23] = Cytotoxicity against human UACC62 cells assessed as growth inhibition after 48 hrs by SRB assay; assay type: functional; conditions: UACC-62, 48 h; for CC50: read-out: LC50 (the source's name)
[24] = Cytotoxicity against human SW620 cells assessed as growth inhibition after 48 hrs by SRB assay; assay type: functional; conditions: SW-620, 48 h
[25] = Cytotoxicity against human OVCAR8 cells assessed as growth inhibition after 48 hrs by SRB assay; assay type: functional; conditions: OVCAR-8, 48 h; for CC50: read-out: LC50 (the source's name)
[26] = test system: 786-0; assay: Cytotoxicity against human 786-0 cells assessed as growth inhibition after 48 hrs by SRB assay; assay type: functional; conditions: 786-0, 48 h; for CC50: read-out: LC50 (the source's name)
[27] = Cytotoxicity against human UACC257 cells assessed as growth inhibition after 48 hrs by SRB assay; assay type: functional; conditions: UACC-257, 48 h

Work on `C/C(=C(/c1ccc(O)cc1)c1ccc(OCCN2CCCC2)cc1)c1ccccc1` yielded a GI50 [1] of 6.8 µM, a TGI [1] of 27 µM and a CC50 [1] of 90.7 µM. The pIC50 [2] was 9.10, the GI50 [3] was 1.84 µM and the TGI [3] was 4.47 µM. It also gave a CC50 [3] of 13 µM, a GI50 [4] of 1.97 µM and a TGI [4] of 3.95 µM. For the same compound, the CC50 [4] was 7.94 µM, the GI50 [5] was 1.65 µM and the LC50 (concentration killing 50% of starting cells) [5] was 7.05 µM. The TGI [5] was 3.41 µM, the GI50 [6] was 9.72 µM and the LC50 [6] was 46.3 µM. For the same compound, the TGI [6] was 21.4 µM, the GI50 [7] was 2.95 µM and the TGI [7] was 8.1 µM. For the same compound, the CC50 [7] was 42.2 µM, the GI50 [8] was 2.1 µM and the LC50 (concentration giving 50% net cell kill) [8] was 9.84 µM. The TGI [8] was 4.54 µM, the GI50 [9] was 2 µM and the TGI [9] was 5.05 µM. It also gave a CC50 [9] of 19.8 µM, a GI50 [10] of 3.02 µM and an LC50 [10] of 37.3 µM. It also gave a TGI [10] of 13.9 µM, a GI50 [11] of 2.1 µM and a TGI [11] of 5.09 µM. The CC50 [11] was 18.6 µM, the GI50 [12] was 1.81 µM and the LC50 [12] was 23.6 µM. It also gave a TGI [12] of 4.77 µM, a GI50 [13] of 1.72 µM and an LC50 (concentration killing 50% of cells) [13] of 6.29 µM. The TGI [13] was 3.29 µM, the GI50 [14] was 3.07 µM and the LC50 [14] was 42.2 µM. The TGI [14] was 15.7 µM, the GI50 [15] was 2.46 µM and the LC50 [15] was 33.9 µM. The TGI [15] was 11.5 µM, the pIC50 [16] was > 6.00 and the GI50 [17] was 1.81 µM. For the same compound, the LC50 [17] was 7.79 µM, the TGI [17] was 3.76 µM and the GI50 [18] was 2.92 µM. It also gave an LC50 [18] of 32.6 µM, a TGI [18] of 10.1 µM and a GI50 [19] of 1.35 µM. It also gave a TGI [19] of 3.2 µM, a CC50 [19] of 7.58 µM and a GI50 [20] of 1.67 µM. The LC50 [20] was 38.5 µM, the TGI [20] was 8.49 µM and the GI50 [21] was 9.17 µM. For the same compound, the LC50 (concentration killing 50% of cells) [21] was 68.7 µM, the TGI [21] was 25.7 µM and the GI50 [22] was 1.7 µM. It also gave a TGI [22] of 3.41 µM, a CC50 [22] of 6.84 µM and a GI50 [23] of 2.26 µM. For the same compound, the TGI [23] was 4.72 µM, the CC50 [23] was 9.84 µM and the GI50 [24] was 2.28 µM. For the same compound, the LC50 [24] was 15.3 µM, the TGI [24] was 5.16 µM and the GI50 [25] was 5.73 µM. The TGI [25] was 23.1 µM, the CC50 [25] was 77.2 µM and the GI50 [26] was 1.86 µM. For the same compound, the TGI [26] was 4.09 µM, the CC50 [26] was 9 µM and the GI50 [27] was 2.03 µM. It also gave an LC50 [27] of 7.61 µM and a TGI [27] of 3.93 µM.
Work on `CCCCCCCCCC(=O)Oc1ccc(/C(=C(/C)c2ccccc2)c2ccc(OCCN3CCCC3)cc2)cc1` yielded a GI50 [1] of 8.87 µM, a TGI [1] of 19.5 µM and a CC50 [1] of 43.7 µM. The pIC50 [2] was 7.32, the GI50 [3] was 7.26 µM and the TGI [3] was 14.7 µM. The CC50 [3] was 29.7 µM, the GI50 [4] was 9.49 µM and the TGI [4] was 18.1 µM. For the same compound, the CC50 [4] was 34.4 µM, the LC50 (concentration killing 50% of starting cells) [5] was 28.6 µM and the TGI [5] was 15.3 µM. It also gave a GI50 [6] of 8 µM, an LC50 [6] of 27.5 µM and a TGI [6] of 14.8 µM. For the same compound, the GI50 [7] was 9.04 µM, the TGI [7] was 17.7 µM and the CC50 [7] was 34.7 µM. It also gave a GI50 [8] of 8.75 µM, an LC50 (concentration giving 50% net cell kill) [8] of 34.1 µM and a TGI [8] of 17.3 µM. It also gave a GI50 [9] of 6.95 µM, a TGI [9] of 14.1 µM and a CC50 [9] of 28.8 µM. The GI50 [10] was 6.77 µM, the LC50 [10] was 28.7 µM and the TGI [10] was 13.9 µM. The GI50 [11] was 9.36 µM, the TGI [11] was 18.4 µM and the CC50 [11] was 36.3 µM. It also gave an LC50 [12] of 36.2 µM, a TGI [12] of 16.2 µM and a GI50 [13] of 8.02 µM. It also gave an LC50 (concentration killing 50% of cells) [13] of 27.2 µM, a TGI [13] of 14.8 µM and a GI50 [14] of 6.55 µM. The LC50 [14] was 27.9 µM, the TGI [14] was 13.5 µM and the GI50 [15] was 6.92 µM. The LC50 [15] was 26.6 µM, the TGI [15] was 13.6 µM and the pIC50 [16] was > 6.00. For the same compound, the GI50 [17] was 8.7 µM, the LC50 [17] was 32.9 µM and the TGI [17] was 16.9 µM. For the same compound, the GI50 [18] was 8.01 µM, the LC50 [18] was 30.6 µM and the TGI [18] was 15.7 µM. The TGI [19] was 12.3 µM, the CC50 [19] was 27 µM and the LC50 [20] was 29.4 µM. The TGI [20] was 13.5 µM, the GI50 [21] was 9.15 µM and the LC50 (concentration killing 50% of cells) [21] was 35.1 µM. The TGI [21] was 17.9 µM, the GI50 [22] was 7.76 µM and the TGI [22] was 15.7 µM. The CC50 [22] was 31.9 µM, the GI50 [23] was 9.18 µM and the TGI [23] was 16.8 µM. It also gave a CC50 [23] of 30.9 µM, a GI50 [24] of 8.57 µM and an LC50 [24] of 28.5 µM. The TGI [24] was 15.6 µM, the GI50 [25] was 9.78 µM and the TGI [25] was 20.8 µM. It also gave a CC50 [25] of 44.2 µM, a GI50 [26] of 8.77 µM and a TGI [26] of 16.8 µM. For the same compound, the CC50 [26] was 32.2 µM, the GI50 [27] was 9.23 µM and the LC50 [27] was 30.6 µM. It also gave a TGI [27] of 16.8 µM.
